Reference: patent US10813931B2, “Methods and compositions relating to the treatment of cancer” (THE BRIGHAM AND WOMEN'S HOSPITAL, INC., priority 2013, dated 2020)

Key:
231 parent and DTC = assay: Cell viability (MTS) and drug sensitivity index, 231 parent vs DTC vs 231Phenocopy; type: cell-based, human; conditions: for cell viability of DTC, SFK and BCR-Abl inhibition separately and in combination: 231 DTC, PP2 and imatinib in combination
Protocol: (§1) Following viability analyses conducted as described in supplemental data, drug sensitivity index (SI) was determined as follows: Cell viability was determined as % of control for treatment conditions of 10 nM, 100 nM 1000 nM and 10 μM to generate an average cell viability across these 4 drug concentrations. SI was calculated as a ratio of parent:DTC or parent:parent^phenocopy. SI=1 correlates to parental sensitivity, SI<1 correlates to resistance compared to parent cell line and SI>1 correlates to enhanced sensitivity to the indicated drug compared to the parent cell line at the same concentration average.
as §1, with “Cells were exposed to indicated treatments ([…]) for 48 hours in serum containing medium. Following” for “Following”, “incubation, cells were washed 1 time with PBS and recovered” for “viability analyses conducted as described”, “serum and phenol red-free RPMI or DMEM and subsequently treated with MTS following manufacturer protocol (Promega, Madison, Wis.). Drug” for “supplemental data, drug”

MDA-MB-231 (231) = assay: CD44 surface expression by FACS in 231 cells; type: cell-based, human; conditions: 231 cells surviving 500 nM doxorubicin
Protocol: (§2) MDA-MB-231, MDA-MB-468 were purchased from ATCC. For acute treatments, cells were plated at a density of 0.5-1×10^5 cells/ml and allowed to adhere for 24-48 hr. when cells reached ˜70% confluency they were treated with antitubulins at indicated concentrations for 4-24 hours and utilized for subsequent assays. To generate chemotherapy tolerant subset, cells were treated with indicated concentrations of chemotherapy (48). Following washes with PBS, adherent cells were trypsinized and re-plated at a density of 1.5-2×10^5 cells/ml and cultured in serum-containing medium. […]
Cells were cultured as indicated and fixed with 4% paraformaldehyde in PBS for 30 min at RT and blocked in 10% goat serum (v/v). Following PBS washes, cells were incubated with indicated antibodies for 60 minutes at room temperature or overnight at 4 C and analyzed by FACS (Accuri cyomteters Inc. Ann Arbor, Mich.). Cell cycle analyzed in propidium iodide solution following incubation in 70% Ethanol overnight at 4 C and following manufacturer protocol (Genscript USA Inc. Piscataway, N.J.). AnnexinV/PI was analyzed FACS following manufacturer protocol (BD, Ann Arbor Mich.). All FACS results were analyzed by FlowJo™ software following a rigorous doublet discrimination based on FSC:A vs. width as well as FSC:A vs. height (Tree Star Inc., Ashland Oreg.). […]

[1] = test system: 468 parent cells and a subset of DTC; assay: Survival curves of 468 parent cells and DTC exposed to chemotherapy; type: cell-based, human; conditions: 48 h exposure
Protocol: as §2, with “medium. After 24 hours incubation, floating cells were removed and remaining cells were washed with 1×PBS and considered a subpopulation of chemotherapy-tolerant cells. A separate plate of control cells were maintained concurrently in serum containing medium and provided fresh media at every interval where DTC received fresh media.” for “medium.”
Parent cells DTC or Parent^Phenocopy were generated as described and plated at a concentration of 1.5×10^5 in a clear bottom 96-well plate. […] Drug sensitivity index (SI) was determined as follows: Cell viability was determined as % of control for treatment conditions of 10 nM, 100 nM 1000 nM and 10 μM to generate an average cell viability across these 4 drug concentrations. SI was calculated as a ratio of parent:DTC or parent:parent^phenocopy. […]

231 DTC and 468DTC = assay: Cell viability of DTC subsets with dasatinib, PI103, combination or DPNP; type: cell-based, human; conditions: combination of PI103 and dasatinib (1:1), 48 h
Protocol: (§3) Parent cells DTC or Parent^Phenocopy were generated as described and plated at a concentration of 1.5×10^5 in a clear bottom 96-well plate. Cells were exposed to indicated treatments ([…]) for 48 hours in serum containing medium. Following incubation, cells were washed 1 time with PBS and recovered in serum and phenol red-free RPMI or DMEM and subsequently treated with MTS following manufacturer protocol (Promega, Madison, Wis.). Drug sensitivity index (SI) was determined as follows: Cell viability was determined as % of control for treatment conditions of 10 nM, 100 nM 1000 nM and 10 μM to generate an average cell viability across these 4 drug concentrations. SI was calculated as a ratio of parent:DTC or parent:parent^phenocopy. SI=1 correlates to parental sensitivity, SI<1 correlates to resistance compared to parent cell line and SI>1 correlates to enhanced sensitivity to the indicated drug compared to the parent cell line at the same concentration average.

AKT signaling = assay: Western blot of phosphorylated and total Akt in 231 DTC; type: cell-based, human; conditions: increasing doses, 4 h
Protocol: Laemli sample buffer was prepared as a 5× solution containing β-mercaptoethanol as a reducing agent. Immunoprecipitaion was performed using both classic and direct IP kits purchased from Pierce following manufacturer protocols (Thermo Fisher inc. Rockford, Ill.). Briefly, cell lysates were prepared using IP/Lysis Buffer (Thermo Fisher inc. Rockford, Ill.) in the presence of 2×HALT protease/phosphatase inhibitor cocktail (Thermo Fisher inc. Rockford, Ill.). For classic Immunoprecipitation, lysates were combined with indicated antibodies for 48 hours at 4 C and combined with protein A/G agarose beads for 4 hours prior to elution with 2× Laemli Buffer at 100 C. Direct immunoprecipitation was performed following manufacturer protocol. Briefly, antibodies were covalently attached to agarose beads, lysate was combined with antibody-agarose bead conjugates for 24 hours prior to washes and elution with provided Elution Buffer. Protein samples were resolved by SDS-PAGE and transferred to PVDF membranes prior to incubation at 4 C with indicated primary antibodies. […] Optical densities of western blots were measured using ImageJ™ open source software (National Institutes of Health) and validated using Adobe CS5™.

[2] = test system: 4T-1 mouse mammary carcinoma; assay: 4T-1 tumor growth in Balb/C mice; type: in vivo
Protocol: 4-6 week old Balb/C mice (Charles River, Cambridge Mass.) were inoculated with 10^6 4 T-1 mouse mammary carcinoma cells in the left flank (Charles River, Cambridge Mass.). Mice identified with tumors were treated with docetaxel (DTX) or vehicle twice at 72 hour intervals at 10 mg/kg i.v. or 15 mg/kg i.p. and subsequently treated with dasatinib i.p. or nanoparticles i.v. 72 hours following the final DTX dose. Tumors were harvested at indicated time points and evaluated for protein phosphorylation and expression. Experimental detail provided in supplemental data.
1 million 4T-1 mouse mammary carcinoma cells suspended in 100 µL PBS were injected per left flank of 5-6 week old Balb/C (Charles River, Wilmington Mass.). DTX was dissolved in pure Ethanol at a concentration of 50 mg/ml mixed 1:1 with Polysorbate 80 (Tween 80) and brought to a final working concentration with 5% glucose in PBS. Once Tumors became palpable (˜100 mm^3), DTX or vehicle treatments were administered at 100 μL volumes. Dasatinib was dissolved in DMSO to working concentration and delivered as 50 μL injections on indicated days, 50 µL DMSO used as a control in these studies. Tumor volumes were measured by a third party unaware of treatment conditions using digital calipers (Starlett, Athol, Mass.), volumes were assessed by the following formula: (Width×Width×length)/2 and expressed as relative volume increase from day 1. Tumor homogenate was prepared by homogenization of equal weight tissue sections incubated in 3×RIPA buffer containing 2× protease/phosphatase inhibitor cocktail (Thermo Fisher, Waltham, Mass.).

[3] = test system: DTC subsets derived from multiple cancer types; assay: Drug sensitivity index of dasatinib in DTC isolated from multiple cell lines; type: cell-based; conditions: DTC from multiple cell lines vs parent, 48 h
Protocol: as §1
as §3, with “SI=1 correlates to parental sensitivity, SI<1 correlates to resistance compared to parent cell line and SI>1 correlates to enhanced sensitivity to the indicated drug compared to the parent cell line at the same concentration average.” left out

TNBC = conditions: 2011, cited from earlier work
[4] = test system: explant from stage IV, metastatic breast cancer patient; assay: Refractory stage IV metastatic breast cancer explant, caspase activation; design: species or system human; conditions: combination of dasatinib with DTX, 48 h
Protocol: Fresh tumor tissues were collected from breast cancer patients immediately after surgical resection at HCG cancer hospital, Bangalore, India. The tumor samples were transported to the laboratory at 4° C., in appropriate transport buffer within 60 minutes post-resection, for ex-vivo studies and molecular and pathological evaluation. Tissues were cut into thin sections and cultured in 96 well plate using optimized conditions (Radhakrishnan et al., 2013). Tumors were treated with a taxane-containing regimen (Docetaxel+Doxorubicin+Cyclophosphamide) or other drugs as indicated. DMSO was used as a vehicle control. After 48 hrs of treatment, tumor cell viability was measured and release of soluble cleaved caspase-3 and caspase-8 were determined.
Human Tumor tissues were fixed in Phos stop (Roche) containing 4% buffered formalin and embedded in paraffin. Prior to immunohistochemical staining of target proteins 4-μm-thick tissue sections mounted in poly L lysine coated glass slides were deparaffinized and rehydrated. Heat induced antigen retrieval was achieved using citrate buffer (pH7.8). […] Immunoreactivity was scored by intensity of staining (0, no staining, 1 weak; 2 moderate; 3 strong) and percentage of positive cells. By multiplying both values, a final score was calculated. […]

AKT and ezrin signaling = assay: Western blot of AKT, ezrin and ERM signaling in 468 cells treated with DTX +/- erlotinib; type: cell-based, human; conditions: 10 nM DTX +/- erlotinib, 24 h
Protocol: MDA-MB-231 (ATCC) were cultured in DMEM containing 10% Fetal Bovine Serum (FBS), MDA-MB-468 MDA-MB-435 and 4T-1 mammary carcinoma cells (ATCC) were cultured in RPMI containing 10% FBS (Invitrogen, Carlsbad Calif.) at 37 C and 5% CO2. During treatments with chemotherapeutics, cells were grown to semi-confluence and treated with indicated concentrations of chemotherapy in serum-containing medium for indicated time points. When small molecule inhibitors were included in treatments, they were added simultaneously with chemotherapy. For siRNA gene knockdown, cells were plated at a concentration of 5×10^4 cells/ml. Pre-validated Silencer Select siRNA targeting pan-CD44 (5′[…]tt3′) (SEQ ID NO: 38) or Ezrin (5′[…]tt3′) (SEQ ID NO: 39) were purchased from Ambion (Invitrogen, Grand Island, N.Y.). siRNA plasmids were transfected using lipofectamine 2000 (Invitrogen, Carlsbad Calif.) following manufacturer protocol and cultured for 72 hours prior to treatment. Scrambled siRNA was used as a control.
Laemli sample buffer was prepared as a 5× solution containing β-mercaptoethanol as a reducing agent. […] Optical densities of western blots were measured using ImageJ™ open source software (National Institutes of Health) and validated using Adobe CS5™.

Compound: Cc1ccc(NC(=O)c2ccc(CN3CCN(C)CC3)cc2)cc1Nc1nccc(-c2cccnc2)n1 [imatinib]
- cell viability of DTC, SFK and BCR-Abl inhibition separately and in combination (231 parent and DTC): dual inhibition does not further augment the sensitivity of the DTC population

Compound: COc1cccc2c1C(=O)c1c(O)c3c(c(O)c1C2=O)C[C@@](O)(C(=O)CO)C[C@@H]3O[C@H]1C[C@H](N)[C@H](O)[C@H](C)O1 [doxorubicin]
- CD44 expression of doxorubicin tolerant cells (Dox-TC) (MDA-MB-231 (231)): robust expression of CD44
- susceptibility of DTC to chemotherapy vs parent cell [1]: acquired resistance

Compound: Oc1cccc(-c2nc(N3CCOCC3)c3oc4ncccc4c3n2)c1 [PI103]
- cell death in the DTC subset, combination (231 DTC and 468DTC): synergistic induction of cell death

Compound: CO[C@H]1C(=O)[C@]2(C)[C@@H](OC)C[C@H]3OC[C@@]3(OC(C)=O)[C@H]2[C@H](OC(=O)c2ccccc2)[C@]2(O)C[C@H](OC(=O)[C@H](O)[C@@H](NC(=O)OC(C)(C)C)c3ccccc3)C(C)=C1C2(C)C [cabazitaxel]
- susceptibility of DTC to chemotherapy vs parent cell [1]: insensitive

Compound: CC(C)(C)n1nc(-c2ccc(Cl)cc2)c2c(N)ncnc21 [PP2]
- cell viability of DTC, SFK and BCR-Abl inhibition separately and in combination (231 parent and DTC): dual inhibition does not further augment the sensitivity of the DTC population

Compound: Cc1nc(Nc2ncc(C(=O)Nc3c(C)cccc3Cl)s2)cc(N2CCN(CCO)CC2)n1 [dasatinib]
- AKT signaling (phosphorylated Akt, western blot) (AKT signaling): reduced, to a minor degree, AKT signaling
- cell death in the DTC subset, combination (231 DTC and 468DTC): synergistic induction of cell death
- tumor growth rate (specific growth rate) ([2]; 'Early Dasatinib', given 72 hours following DTX): significantly augmented the reversal of tumor growth rate
- tumor growth rate (specific growth rate) ([2]; 'Late Dasatinib', 216 hours following DTX): ineffective
- relative tumor volume ([2]; early treatment group after DTX): tumor regression could be achieved
- relative tumor volume ([2]; late treatment after DTX vs matched vehicle control): no difference over a matched vehicle control
- dasatinib sensitivity-index in additional DTC subsets [3]: consistent in additional DTC subsets derived from multiple cancer types
- clinical efficacy as single-agent in TNBC (TNBC; Finn et al.): failed as a single-agent
- toxicity in clinical trials (TNBC; Herold et al.): significant toxic burden
- apoptosis, cleaved caspase 3 (IHC) [4]: could re-sensitize the refractory cancer tissue to chemotherapy
- caspase 8 levels [4]: no change
- sensitivity (SI) of 231Phenocopy (231 parent and DTC; 231Phenocopy vs 231 parent): regained parental sensitivity
- Sensitivity index (SI) (231 parent and DTC; DTC vs parental cell line, 48 h, average viability across 10 nM, 100 nM, 1000 nM and 10 μM): > 1

Compound: C#Cc1cccc(Nc2ncnc3cc(OCCOC)c(OCCOC)cc23)c1 [erlotinib]
- ERM-complex signaling (AKT and ezrin signaling): remained intact
- induction of AKT and ezrin signaling in response to chemotherapy (AKT and ezrin signaling): prevented induction of AKT and ezrin signaling
